Test results as given in patent US20250241931A1, “METHODS OF TREATING A SUBJECT HAVING CLINICALLY SIGNIFICANT SIGNS AND SYMPTOMS ASSOCIATED WITH BLOOD CELL DIFFERENTIATION” (FOGHORN THERAPEUTICS INC., priority 2022, published 2025).

Test system: subjects with advanced hematologic malignancies (R/R AML or MDS)
Assay: ascending multiple dose escalation clinical trial (safety and tolerability, oral administration)
Format: in vivo, human
Conditions: ongoing study
Experimental: An ascending multiple dose escalation clinical trial of the compound shown below is conducted. It is primarily intended to evaluate the safety and tolerability of the compound shown below when administered orally to subjects with advanced hematologic malignancies, specifically relapsed or refractory acute myeloid leukemia (R/R AML) or myelodysplastic syndrome (MDS).
In this ongoing study, clinically significant signs and symptoms associated with blood cell differentiation have been reported for one of 21 subjects with acute myeloid leukemia treated with the compound shown above. This occurred approximately 7-14 days into the treatment with the compound shown above.

COC[C@H](NC(=O)c1ccn(S(C)(=O)=O)c1)C(=O)Nc1nc(-c2cccc(N3C[C@@H](C)O[C@@H](C)C3)n2)cs1 was tested, and the “subjects with clinically significant signs and symptoms associated with blood cell differentiation” value (subjects with acute myeloid leukemia treated orally with the compound) was “one of 21” and the “time of occurrence of the clinically significant signs and symptoms associated with blood cell differentiation, into the treatment” value (the one affected subject with acute myeloid leukemia) was 7 to 14 days.
